Assay results as given in patent US20240109865A1, “INDAZOLE COMPOUNDS AS KINASE INHIBITORS” (TYRA BIOSCIENCES, INC., priority 2020, published 2024).

Columns and labels:
Assay in all cases: Kinase assay, binding constants (Kd), kinase-tagged T7 phage, qPCR
FGFR3 (V555M) = FGFR3 (V555M) (Homo sapiens (Human), UniProt P22607, V555M); details: V555M mutant
Procedure, shortened: (§1)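 Kinase-tagged T7 phage (grown in BL21-derived E. coli) competed with test compound for immobilized biotinylated ligand on streptavidin beads. Kds came from an 11-point 3-fold dilution series at 0.9% final DMSO. Bound kinase was eluted with non-biotinylated ligand and quantified by qPCR, with Hill slope fixed at −1.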

FGFR3 = FGFR3 (Homo sapiens (Human), UniProt P22607)
FGFR3, sequence (P22607 23-806): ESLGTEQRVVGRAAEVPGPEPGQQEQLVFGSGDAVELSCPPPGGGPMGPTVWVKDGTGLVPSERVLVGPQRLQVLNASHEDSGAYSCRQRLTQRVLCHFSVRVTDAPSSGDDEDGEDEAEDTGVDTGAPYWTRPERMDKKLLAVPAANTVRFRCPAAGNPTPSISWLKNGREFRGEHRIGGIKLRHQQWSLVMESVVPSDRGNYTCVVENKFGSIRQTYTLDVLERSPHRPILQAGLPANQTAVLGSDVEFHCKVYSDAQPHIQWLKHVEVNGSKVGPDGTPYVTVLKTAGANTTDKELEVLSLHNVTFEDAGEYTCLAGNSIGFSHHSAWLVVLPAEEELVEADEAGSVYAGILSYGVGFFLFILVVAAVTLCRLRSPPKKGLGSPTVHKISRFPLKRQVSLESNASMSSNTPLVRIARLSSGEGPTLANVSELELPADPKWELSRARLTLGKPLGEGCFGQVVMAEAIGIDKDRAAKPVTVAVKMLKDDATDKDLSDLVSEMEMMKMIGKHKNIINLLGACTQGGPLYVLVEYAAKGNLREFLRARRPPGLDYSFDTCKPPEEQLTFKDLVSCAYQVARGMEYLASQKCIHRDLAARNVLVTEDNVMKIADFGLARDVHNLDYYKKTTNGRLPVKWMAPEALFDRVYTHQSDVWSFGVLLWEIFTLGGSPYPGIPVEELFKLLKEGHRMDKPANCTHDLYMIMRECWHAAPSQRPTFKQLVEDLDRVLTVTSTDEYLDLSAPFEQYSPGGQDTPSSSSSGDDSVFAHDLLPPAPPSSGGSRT
Procedure, shortened: as §1

FGFR2 = FGFR2 (Homo sapiens (Human), UniProt P21802)
FGFR2, sequence (P21802 22-821): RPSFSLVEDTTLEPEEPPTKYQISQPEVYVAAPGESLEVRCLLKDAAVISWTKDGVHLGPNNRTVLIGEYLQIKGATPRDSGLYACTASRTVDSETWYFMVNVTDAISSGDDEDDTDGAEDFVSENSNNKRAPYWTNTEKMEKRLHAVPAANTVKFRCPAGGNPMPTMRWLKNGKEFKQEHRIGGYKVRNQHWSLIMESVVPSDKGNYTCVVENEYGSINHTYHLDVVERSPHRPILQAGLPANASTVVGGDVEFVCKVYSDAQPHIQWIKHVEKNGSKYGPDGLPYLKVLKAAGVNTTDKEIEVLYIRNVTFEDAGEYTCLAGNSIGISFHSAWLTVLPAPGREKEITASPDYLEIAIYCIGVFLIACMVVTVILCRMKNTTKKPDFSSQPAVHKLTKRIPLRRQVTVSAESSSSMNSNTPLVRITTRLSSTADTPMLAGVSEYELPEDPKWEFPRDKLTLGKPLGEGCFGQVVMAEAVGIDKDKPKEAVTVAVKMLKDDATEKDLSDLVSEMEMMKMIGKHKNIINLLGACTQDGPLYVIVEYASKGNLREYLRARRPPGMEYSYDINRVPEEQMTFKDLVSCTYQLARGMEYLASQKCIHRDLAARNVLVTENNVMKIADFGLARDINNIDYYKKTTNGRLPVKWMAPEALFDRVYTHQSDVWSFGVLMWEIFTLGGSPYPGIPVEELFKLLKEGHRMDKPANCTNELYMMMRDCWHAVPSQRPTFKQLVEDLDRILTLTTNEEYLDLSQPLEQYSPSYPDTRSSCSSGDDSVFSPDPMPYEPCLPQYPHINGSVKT
Procedure, shortened: as §1

FGFR1 = FGFR1 (Homo sapiens (Human), UniProt P11362)
FGFR1, sequence (P11362 22-822): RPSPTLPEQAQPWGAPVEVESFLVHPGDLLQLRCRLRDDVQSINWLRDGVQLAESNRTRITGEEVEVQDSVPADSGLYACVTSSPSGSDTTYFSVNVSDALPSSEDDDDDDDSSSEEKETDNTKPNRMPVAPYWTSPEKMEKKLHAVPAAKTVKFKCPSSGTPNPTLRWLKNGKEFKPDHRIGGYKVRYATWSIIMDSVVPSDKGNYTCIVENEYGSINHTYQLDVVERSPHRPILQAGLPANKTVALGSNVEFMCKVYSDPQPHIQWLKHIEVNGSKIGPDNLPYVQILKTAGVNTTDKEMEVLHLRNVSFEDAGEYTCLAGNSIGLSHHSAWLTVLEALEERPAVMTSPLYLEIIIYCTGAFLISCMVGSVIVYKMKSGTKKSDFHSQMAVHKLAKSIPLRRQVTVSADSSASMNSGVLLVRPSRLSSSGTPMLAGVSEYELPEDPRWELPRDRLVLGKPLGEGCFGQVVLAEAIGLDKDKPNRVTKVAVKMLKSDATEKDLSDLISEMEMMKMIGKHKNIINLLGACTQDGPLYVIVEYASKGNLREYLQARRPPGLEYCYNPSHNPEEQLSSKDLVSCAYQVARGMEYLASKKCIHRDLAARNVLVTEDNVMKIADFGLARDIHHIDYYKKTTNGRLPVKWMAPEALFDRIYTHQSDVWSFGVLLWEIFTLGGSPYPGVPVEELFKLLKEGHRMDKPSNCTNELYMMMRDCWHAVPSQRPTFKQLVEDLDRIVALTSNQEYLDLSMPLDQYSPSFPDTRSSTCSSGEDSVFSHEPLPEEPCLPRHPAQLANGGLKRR
Procedure, shortened: as §1

FGFR4 = FGFR4 (Homo sapiens (Human), UniProt P22455)
FGFR4, sequence (P22455 22-802): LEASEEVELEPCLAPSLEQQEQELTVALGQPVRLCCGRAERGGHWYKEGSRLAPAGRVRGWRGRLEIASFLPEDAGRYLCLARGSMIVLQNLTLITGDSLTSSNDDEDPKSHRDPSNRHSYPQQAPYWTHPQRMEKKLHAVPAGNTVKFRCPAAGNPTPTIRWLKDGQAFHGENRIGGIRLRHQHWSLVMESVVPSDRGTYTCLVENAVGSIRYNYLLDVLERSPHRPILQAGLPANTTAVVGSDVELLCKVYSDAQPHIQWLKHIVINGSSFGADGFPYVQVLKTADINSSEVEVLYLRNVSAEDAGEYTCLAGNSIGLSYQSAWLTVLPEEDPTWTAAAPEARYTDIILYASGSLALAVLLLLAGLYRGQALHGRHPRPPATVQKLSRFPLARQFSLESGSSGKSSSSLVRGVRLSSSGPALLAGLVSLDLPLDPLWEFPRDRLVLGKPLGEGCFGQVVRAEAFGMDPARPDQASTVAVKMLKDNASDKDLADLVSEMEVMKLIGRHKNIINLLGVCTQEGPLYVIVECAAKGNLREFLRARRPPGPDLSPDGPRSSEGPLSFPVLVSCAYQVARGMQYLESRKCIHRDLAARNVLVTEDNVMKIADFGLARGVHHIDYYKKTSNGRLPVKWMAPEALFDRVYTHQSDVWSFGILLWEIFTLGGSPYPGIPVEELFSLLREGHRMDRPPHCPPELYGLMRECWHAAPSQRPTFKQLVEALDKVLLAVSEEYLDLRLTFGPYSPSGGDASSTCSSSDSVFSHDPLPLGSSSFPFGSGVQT
Procedure, shortened: as §1

FGFR3 (V555M), sequence (P22607 23-806 V555M): as the sequence (P22607 23-806) above, with V533M counted along it

Kd (FGFR3 (V555M)) [nM]	Kd (FGFR3) [nM]	Kd (FGFR2) [nM]	Kd (FGFR1) [nM]	Kd (FGFR4) [nM]	SMILES
1 to 20	1 to 20	1 to 20	20 to 100	1 to 20	Cc1cc(-c2n[nH]c3ccc(O[C@H](C)c4c(C)cnnc4C)cc23)cnc1N1CCN2C(=O)NCC2C1 (stereo partly drawn) [Example 231, 7-(5-(5-((R)-1-(3,5-dimethylpyridazin-4-yl)ethoxy)-1H-indazol-3-yl)-3-methylpyridin-2-yl)hexahydroimidazo[1,5-a]pyrazin-3(2H)-one]
1 to 20	1 to 20	20 to 100	20 to 100	1 to 20	Cc1ncc(Cl)c([C@@H](C)Oc2ccc3[nH]nc(-c4ccc(N5CCC[C@@H]5CO)nc4)c3c2)c1Cl [Example 232, [(2R)-1-[5-[5-[(1R)-1-(3,5-dichloro-2-methyl-4-pyridyl)ethoxy]-1H-indazol-3-yl]-2-pyridyl]pyrrolidin-2-yl]methanol]
20 to 100	20 to 100	100 to 300	> 300	> 300	C[C@@H](Oc1ccc2[nH]nc(-c3ccc(N4CC5(C4)CN(S(C)(=O)=O)C5)nc3)c2c1)c1c(Cl)cnnc1Cl [Example 233, (R)-5-(1-(3,5-dichloropyridazin-4-yl)ethoxy)-3-(6-(6-(methylsulfonyl)-2,6-diazaspiro[3.3]heptan-2-yl)pyridin-3-yl)-1H-indazole]
1 to 20	1 to 20	20 to 100	20 to 100	1 to 20	COC1CC2(C1)CN(c1ccc(-c3n[nH]c4ccc(O[C@H](C)c5c(Cl)cnc(C)c5Cl)cc34)cn1)C2 [Example 238, 5-[(1R)-1-(3,5-dichloro-2-methyl-4-pyridyl)ethoxy]-3-[6-(6-methoxy-2-azaspiro[3.3]heptan-2-yl)-3-pyridyl]-1H-indazole]
1 to 20	1 to 20	1 to 20	1 to 20	1 to 20	COc1cc2[nH]nc(-c3cnc(N4CC5(C4)CN(S(C)(=O)=O)C5)nc3)c2cc1O[C@H](C)c1c(Cl)cncc1Cl [Example 239, 5-[(1R)-1-(3,5-dichloro-4-pyridyl)ethoxy]-6-methoxy-3-[2-(2-methylsulfonyl-2,6-diazaspiro[3.3]heptan-6-yl)pyrimidin-5-yl]-1H-indazole]

The next lines start with the compound.

SMILES	Kd (FGFR3 (V555M)) [nM]	Kd (FGFR3) [nM]	Kd (FGFR2) [nM]	Kd (FGFR1) [nM]	Kd (FGFR4) [nM]
Cc1cc(-c2n[nH]c3ccc(O[C@H](C)c4c(Cl)cnc(C)c4Cl)cc23)cnc1N1CC(CO)(CO)C1 [Example 234, [1-[5-[5-[(1R)-1-(3,5-dichloro-2-methyl-4-pyridyl)ethoxy]-1H-indazol-3-yl]-3-methyl-2-pyridyl]-3-(hydroxymethyl)azetidin-3-yl]methanol]	1 to 20	1 to 20	100 to 300	100 to 300	1 to 20
Cc1cc(-c2n[nH]c3ccc(O[C@H](C)c4c(Cl)cnc(C)c4Cl)cc23)cnc1N1CC2(C1)CN(S(C)(=O)=O)C2 [Example 235, 5-[(1R)-1-(3,5-dichloro-2-methyl-4-pyridyl)ethoxy]-3-[5-methyl-6-(2-methylsulfonyl-2,6-diazaspiro[3.3]heptan-6-yl)-3-pyridyl]-1H-indazole]	1 to 20	1 to 20	100 to 300	100 to 300	1 to 20
C[C@@H](Oc1ccc2[nH]nc(-c3ccc(N4CCC[C@@H]4CO)nc3)c2c1)c1c(Cl)cncc1Cl [Example 236, ((R)-1-(5-(5-((R)-1-(3,5-dichloropyridin-4-yl)ethoxy)-1H-indazol-3-yl)pyridin-2-yl)pyrrolidin-2-yl)methanol]	1 to 20	1 to 20	1 to 20	20 to 100	1 to 20
C[C@@H](Oc1ccc2[nH]nc(-c3ccc(N4CCC[C@H]4CO)nc3)c2c1)c1c(Cl)cncc1Cl [Example 237, ((S)-1-(5-(5-((R)-1-(3,5-dichloropyridin-4-yl)ethoxy)-1H-indazol-3-yl)pyridin-2-yl)pyrrolidin-2-yl)methanol]	1 to 20	1 to 20	1 to 20	1 to 20	1 to 20
